Experimental data as given in US8790874B2, “Device for investigation of a flow conduit” (priority 2008, dated 2014).

Columns and labels:
Assay type in all cases: cell-based
mesenteric arteries [1] = test: PE dose response of mesenteric arteries measured using the device; details: 3.0 μM PE applied to exterior surface, n=5
From the text: An example process of loading a flow conduit, in this case an artery, into this example embodiment of the device is now described. The device was initially flushed with a Bovine serum albumin (BSA) solution to prevent any unwanted adhesion of arteries to the walls of the main channel or culture chamber. […] As an alternative to the reversible fixation of the artery used here, an irreversible fixation method may be used, as discussed above.
Upon fixation (e.g., using a reversible fixation method), the lumen of the artery was perfused by operating a syringe pump, connected to an inlet of the culture channel, in the perfusion mode. By connecting the inlet and outlet of the culture channel to different hydrostatic pressure levels, a flow through the culture chamber was achieved while maintain a defined transmural pressure difference across the wall of the artery. A flow through the culture chamber was achieved while maintaining a defined transmural pressure difference (i.e., P1−P3 in FIG. 1) by superfusing the culture chamber with a second syringe pump that operates in the perfusion mode, connected at the inlet of the culture channel. The outlet of the culture channel was thus led to a reduced hydrostatic pressure level. […]

mesenteric arteries [2] = test: PE dose response of mesenteric arteries, conventional pipette cannulation setup; details: 3.0 μM PE applied to exterior surface, n=5
From the text: The device may be used to investigate responses of biological flow conduits. […] In this example, PE was applied to the exterior surface of the flow conduit, and the dose of PE was changed in a stepwise fashion.

mouse mesenteric vessel = test: Constriction of a mesenteric vessel in the device, single dose of PE; details: 3.0 μM PE, representative tracing
Procedure: In another example, the device was used to investigate a mesenteric vessel. […] In this example, a mouse mesenteric vessel was used, and a single does of PE was administered. The PE was applied to the exterior surface of the flow conduit. a) is a representative tracing of a mesenteric vessel's response to 3.0 μM PE, with a sustained constriction of 41.8%, measured in freshly isolated arteries that were immediately subjected to the stimulation with PE. b) is a representative tracing of a single mesenteric vessel kept in culture for 24 hours on the device prior to testing the response to PE, showing a sustained constriction of 41.4% to 3.0 μM PE.

mouse mesenteric artery = test: FURA-2 Ca2+ ratiometric measurements on a mesenteric artery fixed on the device; details: stimulation with 3.0 μM PE; return to baseline following washout
From the text: The smooth muscle cells in the artery are stained.

SMILES: CNC[C@H](O)c1cccc(O)c1 [PE, phenylephrine]
- maximal outer diameter constriction (mesenteric arteries [1]): 42.2+/−3.8%
- maximal outer diameter constriction (mesenteric arteries [2]): 44.5+/−2.5%
- sustained constriction (mouse mesenteric vessel; freshly isolated arteries, immediately stimulated): 41.8%
- sustained constriction (mouse mesenteric vessel; vessel kept in culture for 24 hours on the device before testing): 41.4%
- FURA-2 ratio (F340nm/F380nm) (mouse mesenteric artery): increase in FURA-2 ratio
